For data set [1], the target named is T1, Poly [ADP-ribose] polymerase 1 (Homo sapiens, UniProt P09874). As to the kind of experiment: Inhibition of PARP1.
The target of data set [2] is T1, Poly [ADP-ribose] polymerase 1. The experiment in a line: Inhibition of PARP1 in cell based assay.
The nature of data set [3]: Half life in mouse at 5 mg/kg, iv. Format: ADME, organism-based. The following applies: in vivo. More on the design: dose 5 mg/kg, route intravenous.
Data set [4] in a line: Volume of distribution in mouse at 5 mg/kg, iv and 10 mg/kg, po. The settings on record: in vivo. Format: ADME, organism-based.
Data set [5] is described as follows: Clearance in mouse at 5 mg/kg, iv and 10 mg/kg, po. The following applies: in vivo. Format: ADME, organism-based.
A short description of data set [6]: Oral bioavailability in mouse at 10 mg/kg. Format: ADME, organism-based. The settings on record: in vivo.
Data set [7] can be described thus: AUC in mouse at 10 mg/kg, po. More on the design: dose 10 mg/kg, route oral. Format: ADME, organism-based. The settings on record: plasma.
The subject of another data set is B16-F10. As to the kind of experiment: Potentiation of temozolomide-induced cytotoxicity in mouse B16F10 cells […] C57BL/6 mouse melanoma model assessed as reduction in tumor volume at 30 mg/kg, po. Format: functional, organism-based. Details: dose 30 mg/kg.
Data set [8] can be described thus: Half life in mouse at 3 mg/kg, iv and 10 mg/kg, po. Format: ADME, organism-based. The settings on record: in vivo.
Data set [9] is described as follows: Volume of distribution in mouse at 3 mg/kg, iv and 10 mg/kg, po. The data set is classed as ADME, organism-based. The following applies: in vivo.
A short description of data set [10]: Clearance in mouse at 3 mg/kg, iv and 10 mg/kg, po. Format: ADME, organism-based. The settings on record: in vivo.
Data set [11] can be described thus: Half life in rat at 5 mg/kg, iv and 5 mg/kg, po. The data set is classed as ADME, organism-based. The following applies: in vivo.
Data set [12] can be described thus: Volume of distribution in rat at 5 mg/kg, iv and 5 mg/kg, po. Format: ADME, organism-based. The settings on record: in vivo.
The nature of data set [13]: Clearance in rat at 5 mg/kg, iv and 5 mg/kg, po. Format: ADME, organism-based. The following applies: in vivo.
Data set [14] in a line: Oral bioavailability in rat at 5 mg/kg. Format: ADME, organism-based. The following applies: in vivo.
Data set [15] is described as follows: AUC in rat at 5 mg/kg, po. The data set is classed as ADME, organism-based. More on the design: dose 5 mg/kg, route oral. The settings on record: plasma.
Data set [16] can be described thus: Half life in dog at 2.5 mg/kg, iv and 2.5 mg/kg, po. The data set is classed as ADME, organism-based, Canis lupus familiaris. The settings on record: in vivo.
Data set [17] in a line: Volume of distribution in dog at 2.5 mg/kg, iv and 2.5 mg/kg, po. The data set is classed as ADME, organism-based, Canis lupus familiaris. The following applies: in vivo.
The nature of data set [18]: Clearance in dog at 2.5 mg/kg, iv and 2.5 mg/kg, po. Format: ADME, organism-based, Canis lupus familiaris. The settings on record: in vivo.
The nature of data set [19]: Oral bioavailability in dog at 2.5 mg/kg. The data set is classed as ADME, organism-based, Canis lupus familiaris. The settings on record: in vivo.
The nature of data set [20]: AUC in dog at 2.5 mg/kg, po. The data set is classed as ADME, organism-based, Canis lupus familiaris. Details: dose 2.5 mg/kg, route oral. The following applies: plasma.
The nature of data set [21]: Half life in monkey at 2.5 mg/kg, iv and 2.5 mg/kg, po. Format: ADME, organism-based, Macaca mulatta. The following applies: rhesus monkey, in vivo.
A short description of data set [22]: Volume of distribution in monkey at 2.5 mg/kg, iv and 2.5 mg/kg, po. The settings on record: rhesus monkey, in vivo. Format: ADME, organism-based, Macaca mulatta.
Data set [23] is described as follows: Clearance in monkey at 2.5 mg/kg, iv and 2.5 mg/kg, po. The data set is classed as ADME, organism-based, Macaca mulatta. The following applies: rhesus monkey, in vivo.
Data set [24] in a line: Oral bioavailability in monkey at 2.5 mg/kg. The data set is classed as ADME, organism-based, Macaca mulatta. The settings on record: rhesus monkey, in vivo.
Data set [25] can be described thus: AUC in monkey at 2.5 mg/kg, po. The settings on record: rhesus monkey, plasma. Details: dose 2.5 mg/kg, route oral. Format: ADME, organism-based, Macaca mulatta.

These results are taken from ChEMBL document CHEMBL1155103, “Synthesis and SAR of novel, potent and orally bioavailable benzimidazole inhibitors of poly(ADP-ribose) polymerase (PARP) with a quaternary methylene-amino substituent” (Bioorg Med Chem Lett, 2008).

pEC50, pKi: −log10 of the molar value. Calls of active or inactive are those of the source. The rule behind the calls is not given here.

T1 sequence (P09874 whole entry): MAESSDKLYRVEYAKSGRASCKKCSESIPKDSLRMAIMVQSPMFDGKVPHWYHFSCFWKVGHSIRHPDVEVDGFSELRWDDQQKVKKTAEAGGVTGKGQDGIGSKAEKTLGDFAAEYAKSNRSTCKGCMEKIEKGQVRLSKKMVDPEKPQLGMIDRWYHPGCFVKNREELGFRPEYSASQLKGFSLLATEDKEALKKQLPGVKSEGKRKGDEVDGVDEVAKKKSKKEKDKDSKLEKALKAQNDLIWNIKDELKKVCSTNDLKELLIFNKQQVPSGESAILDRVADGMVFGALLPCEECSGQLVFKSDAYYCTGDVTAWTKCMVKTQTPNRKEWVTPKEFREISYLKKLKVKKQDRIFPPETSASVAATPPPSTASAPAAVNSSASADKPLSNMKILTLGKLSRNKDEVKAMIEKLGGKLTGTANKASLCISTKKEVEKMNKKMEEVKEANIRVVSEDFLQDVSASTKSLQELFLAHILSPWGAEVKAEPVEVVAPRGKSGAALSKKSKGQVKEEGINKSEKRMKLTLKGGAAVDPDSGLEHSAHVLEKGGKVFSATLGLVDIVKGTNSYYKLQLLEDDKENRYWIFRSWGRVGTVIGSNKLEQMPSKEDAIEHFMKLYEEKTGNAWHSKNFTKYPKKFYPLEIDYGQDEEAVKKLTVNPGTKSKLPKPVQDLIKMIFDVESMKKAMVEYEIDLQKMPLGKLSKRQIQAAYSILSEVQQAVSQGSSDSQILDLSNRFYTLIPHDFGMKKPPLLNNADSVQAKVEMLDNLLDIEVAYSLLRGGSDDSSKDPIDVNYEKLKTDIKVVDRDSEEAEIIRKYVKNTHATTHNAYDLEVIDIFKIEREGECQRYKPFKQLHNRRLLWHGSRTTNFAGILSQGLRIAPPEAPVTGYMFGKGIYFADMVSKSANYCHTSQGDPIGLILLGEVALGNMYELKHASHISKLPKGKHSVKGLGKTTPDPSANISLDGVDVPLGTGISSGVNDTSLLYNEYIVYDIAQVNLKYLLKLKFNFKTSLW

The term pKi denotes the negative decadic logarithm of the Ki, by convention in mol/L. As a reminder, the pEC50 is the EC50 on a negative log10 scale, so that one unit is a factor of ten. In the case of `CC(C)(NCCc1ccccc1)c1nc2c(C(N)=O)cccc2[nH]1`, the pKi in data set [1] is 7.43. Further, the pEC50 in data set [2] is 8.05.

`CC(NCC1CC1)c1nc2c(C(N)=O)cccc2[nH]1` (stereo not drawn) gave a pKi in [1] of 7.62.

In turn, `CCNC(=O)NC(C)(C)c1nc2c(C(N)=O)cccc2[nH]1` gave a pKi in data set [1] of 6.06.

`CC(C)(N)c1nc2c(C(N)=O)cccc2[nH]1` had a pKi in data set [1] of 7.72.

In turn, `CC(CCN)c1nc2c(C(N)=O)cccc2[nH]1` (stereo not drawn) showed a pKi in data set [1] of 7.49.

The compound `NC(=O)c1cccc2[nH]c(C3(N)CC3)nc12` gave a negative-log Ki (pKi) in data set [1] of 7.60.

Consider `CCN(CC)C(C)c1nc2c(C(N)=O)cccc2[nH]1` (stereo not drawn), for which, in data set [1], the pKi is 7.21.

For `CC(C)NC(C)c1nc2c(C(N)=O)cccc2[nH]1` (stereo not drawn), in data set [1], the pKi is 7.92.

With `CC(CCNC1CCCC1)c1nc2c(C(N)=O)cccc2[nH]1` (stereo not drawn), the pKi in data set [1] was 7.35.

`CC(NC1CCCC1)c1nc2c(C(N)=O)cccc2[nH]1` (stereo not drawn) had a pKi in [1] of 7.48.

In data set [1], `NC(=O)c1cccc2[nH]c(C3(N)CCC3)nc12` gave a negative-log Ki (pKi) of 7.60.

Turning to `CC(NCCc1ccccc1)c1nc2c(C(N)=O)cccc2[nH]1` (stereo not drawn), the negative logarithm of the Ki (pKi) in data set [1] is 7.46.

The term half-life denotes how long it takes for the measured level to halve. As usually defined, the bioavailability is the share of a dose that reaches the circulation, judged against a reference dose that is usually intravenous. As usually defined, the AUC is concentration integrated over time. For the compound `CNC(C)(C)c1nc2cccc(C(N)=O)c2[nH]1`, the negative logarithm of the Ki (pKi) in [1] was 8.40. Further, in data set [2], the negative-log EC50 (pEC50) is 8.89. In [3], this compound showed a half-life of 36 min. Besides, the Vd in data set [4] came to 3.5 L/kg. In data set [5], this compound had a clearance of 70 mL/min/kg. In addition, the bioavailability in data set [6] was found to be 85%. For the same compound, the exposure (AUC) in data set [7] worked out at 8.64 µM·h.

Turning to `CCCNC(C)(C)c1nc2c(C(N)=O)cccc2[nH]1`, the pKi in data set [1] is 8.00. For the same compound, in data set [2], the negative-log EC50 (pEC50) is 8.52.

Compound `CN(C)C(C)(C)c1nc2cccc(C(N)=O)c2[nH]1` had a negative-log Ki (pKi) in data set [1] of 8.05. This compound showed a negative-log EC50 (pEC50) in data set [2] of 8.74.

In [1], `CC(C)(NCC1CC1)c1nc2c(C(N)=O)cccc2[nH]1` had a pKi of 8.15. Also, in [2], the pEC50 is 8.70. Further, in data set [3], the half-life was 48 min. Further, in data set [4], the Vd worked out at 13.3 L/kg. Moreover, in data set [5], the clearance is 192 mL/min/kg. Also, the bioavailability in data set [6] turned out to be 100%. Also, the AUC in data set [7] turned out to be 3.38 µM·h.

As to `CN(C1CCC1)C(C)(C)c1nc2c(C(N)=O)cccc2[nH]1`, the pKi in [1] is 7.72.

As to `CC(C)(c1nc2cccc(C(N)=O)c2[nH]1)N1CCCCC1`, the negative logarithm of the Ki (pKi) in [1] was 7.82. This compound also showed a pEC50 in [2] of 8.51.

`CC(NS(=O)(=O)N(C)C)c1nc2c(C(N)=O)cccc2[nH]1` (stereo not drawn): the pKi in [1] is 6.85.

With `NC(=O)c1cccc2[nH]c(C3(N)CCCCC3)nc12`, in data set [1], the negative logarithm of the Ki (pKi) is 7.30.

On to `CN(CC1CCOC1)C(C)(C)c1nc2cccc(C(N)=O)c2[nH]1` (stereo not drawn), for which the pKi in [1] is 7.77.

In turn, `NC(=O)c1cccc2[nH]c(C3(N)Cc4ccccc4C3)nc12` showed a pKi in data set [1] of 7.24.

On to `NC(=O)c1cccc2[nH]c(C3(N)CCc4ccccc4C3)nc12` (stereo not drawn), for which, in [1], the pKi is 7.74.

`CC(C)(NC1CCCC1)c1nc2c(C(N)=O)cccc2[nH]1` showed a negative logarithm of the Ki (pKi) in data set [1] of 8.05. In addition, the negative logarithm of the EC50 (pEC50) in data set [2] is 8.40.

In [1], `CCCNC(C)c1nc2c(C(N)=O)cccc2[nH]1` (stereo not drawn) showed a pKi of 7.39.

In turn, `CC(C)(c1nc2c(C(N)=O)cccc2[nH]1)N1CCCC1` showed a negative-log Ki (pKi) in data set [1] of 8.52. The pEC50 in data set [2] was 9.05. Also, the half-life in [3] is 24 min. The compound further returned a Vd in [4] of 1.8 L/kg. The clearance in [5] was 50 mL/min/kg. In data set [6], this compound yielded a bioavailability of 52%. The compound also yielded an exposure (AUC) in data set [7] of 6.33 µM·h. Moreover, the outcome in the data set with B16-F10 was Active.

In data set [1], `CC(NC1CCCCC1)c1nc2c(C(N)=O)cccc2[nH]1` (stereo not drawn) had a pKi of 7.28.

Regarding `CC(N)c1nc2c(C(N)=O)cccc2[nH]1` (stereo not drawn), in data set [1], the negative logarithm of the Ki (pKi) was 7.30.

`CC(C)NC(C)(C)c1nc2c(C(N)=O)cccc2[nH]1`: the negative-log Ki (pKi) in data set [1] was 8.15. The compound also showed a pEC50 in [2] of 8.70. In addition, the half-life is 36 min in [3]; 36 min in data set [8]; 60 min in [11]; 168 min in data set [16]; 36 min in [21]. For the same compound, the Vd in data set [4] was 2.1 L/kg; in data set [9] it was 2.1 L/kg; in data set [12], 3.7 L/kg; in [17], 2.9 L/kg; in data set [22], 1.1 L/kg. Besides, the clearance in data set [5] was 66.7 mL/min/kg; in data set [10], 66.7 mL/min/kg; in data set [13], 85 mL/min/kg; in data set [18] it was 14.2 mL/min/kg; in [23] it was 23.3 mL/min/kg. Further, the bioavailability was 82% in [6], 26% in [14], 70.5% in data set [19] and 12.6% in data set [24]. In addition, the exposure (AUC) worked out at 5.78 µM·h in data set [7], 0.74 µM·h in data set [15], 6.07 µM·h in [20] and 0.65 µM·h in [25]. In addition, the result in the data set with B16-F10 was Active.
